Measured values as given in patent EP4810052A2, “HCRHR2 SELECTIVE POLYPEPTIDES” (Gubra A/S, priority 2023, dated 2026).
Read-outs that look alike come from different tables or passages of the source. Starred links: 1 amine or outer side, 2 acyl side, 3 side chain; linkers in the order of their positions; H or OH if unused. Non-standard residues stand in square brackets, D forms with d. Residues, ends and D or L forms follow the SMILES beside them. Groups on a side chain read outwards from the residue. *: point of attachment. C20 diacid = O=C(O)CCCCCCCCCCCCCCCCCCC(=O)*; γGlu = O=C(O)[C@H](CCC(=O)[*:2])N[*:1]; NMeI = CC[C@H](C)[C@H](NC)C(=O)O; Nle = CCCC[C@H](N)C(=O)O; AEEA = NCCOCCOCC(=O)O; Aib = CC(C)(N)C(=O)O

Legend:
PK in rats = format: in vivo; design: T½ / MRT: unit not given here; conditions: for half-life: read-out: T½ (converted)
Method: Lean male Sprague Dawley rats (RJHan:SD) were obtained from JanVier (JanVier Labs, France) at 7 weeks of age. The animals were pair housed until randomization under a 12/12 h dark-light cycle, light off at 3 PM. Room temperature was controlled to 22°C ± 1°C, with 60 % ± 20% humidity.
Animals had ad libitum access to regular rodent chow (Altromin 1324, Brogaarden, Denmark) and tap water.
After 2 weeks of acclimatization, the animals were single housed and randomized into treatment groups (n = 3 per group) based on body weight on study day -3. On study day 1, animals were dosed 50 nmol/kg IV and SC in combination of two peptides. Plasma samples were collected for PK analysis at times 0.17, 1, 3, 6, 24, 30, 48, 72 and 96 hours post dosing. Plasma samples were analyzed using LC-MSMS and PK parameters were estimated by Non-Compartmental Analysis (NCA).

[1] = Thioflavin T fibril formation assay of purified peptides; format: physicochemical; design: key: Amyloid fibril formation detected by an increase in ThT fluorescence was denoted with "Yes"; samples without increasing ThT fluorescence hence not forming amyloid fibrils were denoted "No"
In short: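 Fibril formation read as rising ThT emission at 480 nm (450 nm excitation), 4 µM ThT, over 96 h at 40°C with alternating 5-min rest and 700 rpm shaking cycles, in triplicate. Samples were 200 µM compound in 50 mM phosphate at various pH values, or co-formulated at 200 µM in semaglutide product at pH 7.4.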

hCRHR2 = biological target: T1, hCRHR2 (Homo sapiens, UniProt Q13324); experiment: HTRF cAMP assay, determination of hCRHR2 potency (peptide libraries 5 conc., purified peptides 11 conc.); format: cell-based
T1 sequence (Q13324 1-411): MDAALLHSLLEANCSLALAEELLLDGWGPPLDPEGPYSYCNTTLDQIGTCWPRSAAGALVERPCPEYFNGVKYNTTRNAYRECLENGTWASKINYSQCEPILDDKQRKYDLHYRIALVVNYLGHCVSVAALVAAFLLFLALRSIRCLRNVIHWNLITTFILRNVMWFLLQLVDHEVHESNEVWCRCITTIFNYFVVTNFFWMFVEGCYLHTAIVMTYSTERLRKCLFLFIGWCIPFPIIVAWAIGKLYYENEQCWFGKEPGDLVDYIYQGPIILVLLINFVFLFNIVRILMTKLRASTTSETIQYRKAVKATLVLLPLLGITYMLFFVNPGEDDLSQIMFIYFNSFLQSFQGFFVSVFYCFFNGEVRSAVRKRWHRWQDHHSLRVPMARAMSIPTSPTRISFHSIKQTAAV
In short: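 Read-out was HTRF competitive cAMP detection (d2-labelled cAMP, cryptate-labelled antibody) in suspended, freshly thawed CHO-K1 cells stably carrying human CRHR2.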

hCRHR1 = biological target: T2, hCRHR1 (Homo sapiens, UniProt P34998); experiment: HTRF cAMP assay, determination of hCRHR1 potency (peptide libraries 5 conc., purified peptides 11 conc.); format: cell-based
T2 sequence (P34998 24-415): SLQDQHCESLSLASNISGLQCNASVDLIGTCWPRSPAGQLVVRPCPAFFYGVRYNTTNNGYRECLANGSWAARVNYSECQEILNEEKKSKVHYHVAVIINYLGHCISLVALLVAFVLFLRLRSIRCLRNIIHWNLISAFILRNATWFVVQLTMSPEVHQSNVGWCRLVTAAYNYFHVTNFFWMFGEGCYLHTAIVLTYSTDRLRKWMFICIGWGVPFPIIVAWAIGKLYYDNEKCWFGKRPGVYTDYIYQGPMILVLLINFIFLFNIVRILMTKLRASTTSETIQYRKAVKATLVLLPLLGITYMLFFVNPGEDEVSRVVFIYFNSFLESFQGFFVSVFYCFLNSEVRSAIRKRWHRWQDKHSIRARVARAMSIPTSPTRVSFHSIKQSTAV
In short: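 Cellular cAMP was read by time-resolved FRET between d2-labelled cAMP and cryptate anti-cAMP antibody. The cells were freshly thawed suspension CHO-K1 cells stably expressing human CRHR1.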

[2] = Table 5, purified peptides, read-out: hCRHR2 EC50
[3] = Table 5, purified peptides, read-out: hCRHR1 EC50
[4] = male, Sprague Dawley (RJHan:SD), in vivo, iv, Rat, 50 nmol/kg i.v.
[5] = male, Sprague Dawley (RJHan:SD), in vivo, sc, Rat, 50 nmol/kg s.c.

With `CC[C@H](C)[C@H](N)C(=O)N[C@H](C(=O)N[C@@H](CC(C)C)C(=O)N[C@@H](CO)C(=O)N[C@@H](CC(C)C)C(=O)N[C@@H](CC(=O)O)C(=O)N[C@H](C(=O)N1CCC[C@H]1C(=O)N[C@H](C(=O)NCC(=O)N[C@@H](CC(C)C)C(=O)N[C@@H](CC(C)C)C(=O)N[C@@H](CCC(N)=O)C(=O)N[C@H](C(=O)N[C@@H](CC(C)C)C(=O)N[C@@H](CC(C)C)C(=O)N[C@@H](CCC(=O)O)C(=O)N[C@@H](CCC(N)=O)C(=O)N[C@@H](C)C(=O)N[C@@H](CCCNC(=N)N)C(=O)N[C@@H](C)C(=O)N[C@@H](CCCNC(=N)N)C(=O)N[C@@H](C)C(=O)N[C@@H](C)C(=O)N[C@@H](CCCNC(=N)N)C(=O)N[C@@H](CCC(=O)O)C(=O)N[C@@H](CCC(N)=O)C(=O)N[C@@H](C)C(=O)N[C@@H](CCCCNC(=O)COCCOCCNC(=O)COCCOCCNC(=O)CC[C@H](NC(=O)CC[C@H](NC(=O)CCCCCCCCCCCCCCCCCCC(=O)O)C(=O)O)C(=O)O)C(=O)NC(C)(C)C(=O)N[C@@H](CC(N)=O)C(=O)N[C@@H](C)C(=O)N[C@@H](CCC(=O)O)C(=O)N[C@H](C(=O)N[C@@H](CC(C)C)C(=O)N[C@@H](C)C(=O)N[C@@H](CCC(=O)O)C(=O)N[C@H](C(N)=O)C(C)C)[C@@H](C)CC)[C@@H](C)CC)[C@@H](C)CC)C(C)C)C(C)C` [SEQ ID NO: 19] (H-IVLSLDVPIGLLQILLEQARARAAREQAK([AEEA-AEEA-γGlu-γGlu-C20 diacid])[Aib]NAEILAEV-NH2) the MRT (PK in rats; Rat) was 7.4, the T½ (PK in rats; Rat) was 5.9 and the “Fibrillation (pH 7.5)” value ([1]; pH 7.5, ThT assay) was “No”. For the same compound, the “Selectivity ratio (hCRHR1/ hCRHR2)” value (hCRHR2; hCRHR1-EC50/hCRHR2-EC50) was over 3125, the EC50 (hCRHR2; purified peptides, CHO-K1 cells stably expressing hCRHR2, cAMP HTRF, read-out: hCRHR2 EC50) was 1.6 nM and the “Solubility pH 7.5, target conc. =10 mg/mL (measured mg/mL)” value (pH 7.5) was 9.6 mg/mL. It also gave an EC50 (hCRHR1; purified peptides, CHO-K1 cells stably expressing hCRHR1, cAMP HTRF, read-out: hCRHR1 EC50) of over 5000 nM.

For `CCCC[C@H](NC(=O)[C@@H](NC(=O)[C@H](CCC(=O)O)NC(=O)[C@H](C)NC(=O)[C@H](CC(N)=O)NC(=O)C(C)(C)NC(=O)[C@H](CCCCNC(=O)COCCOCCNC(=O)COCCOCCNC(=O)CC[C@H](NC(=O)CC[C@H](NC(=O)CCCCCCCCCCCCCCCCCCC(=O)O)C(=O)O)C(=O)O)NC(=O)[C@H](C)NC(=O)[C@H](CCC(N)=O)NC(=O)[C@H](CCC(=O)O)NC(=O)[C@H](CCCNC(=N)N)NC(=O)[C@H](C)NC(=O)[C@H](C)NC(=O)[C@H](CCCNC(=N)N)NC(=O)[C@H](C)NC(=O)[C@H](CCCNC(=N)N)NC(=O)[C@H](C)NC(=O)[C@H](CCC(N)=O)NC(=O)[C@H](CO)NC(=O)[C@H](CC(C)C)NC(=O)[C@H](CC(C)C)NC(=O)[C@@H](NC(=O)[C@H](CCC(N)=O)NC(=O)[C@H](CC(C)C)NC(=O)[C@H](CC(C)C)NC(=O)CNC(=O)[C@@H](NC(=O)[C@@H]1CCCN1C(=O)[C@@H](NC(=O)[C@H](CC(=O)O)NC(=O)[C@H](CC(C)C)NC(=O)[C@H](CO)NC(=O)[C@H](CC(C)C)NC(=O)[C@@H](NC(=O)[C@@H](N)[C@@H](C)CC)C(C)C)C(C)C)[C@@H](C)CC)[C@@H](C)CC)[C@@H](C)CC)C(=O)N[C@@H](C)C(=O)N[C@@H](CCC(=O)O)C(=O)N[C@H](C(N)=O)C(C)C` [compound 237] (H-IVLSLDVPIGLLQILLSQARARAAREQAK([AEEA-AEEA-γGlu-γGlu-C20 diacid])[Aib]NAEI[Nle]AEV-NH2), the MRT (PK in rats; Rat) was 5.1, the T½ (PK in rats; Rat) was 4.1 and the “Fibrillation (pH 7.5)” value ([1]; pH 7.5) was “No”. The “Selectivity ratio (hCRHR1/ hCRHR2)” value (hCRHR2; Table 5) was over 6494, the EC50 (hCRHR2; [2]) was 0.77 nM and the “Solubility pH 7.5, target conc. =10 mg/mL (measured mg/mL)” value (pH 7.5) was 10 mg/mL. The EC50 (hCRHR1; [3]) was over 5000 nM.

With `CCCC[C@H](NC(=O)[C@@H](NC(=O)[C@H](CCC(=O)O)NC(=O)C(C)(C)NC(=O)[C@H](CC(N)=O)NC(=O)[C@@H](NC(=O)[C@H](CCCCNC(=O)COCCOCCNC(=O)COCCOCCNC(=O)CC[C@H](NC(=O)CC[C@H](NC(=O)CCCCCCCCCCCCCCCCCCC(=O)O)C(=O)O)C(=O)O)NC(=O)[C@H](C)NC(=O)[C@H](CCC(N)=O)NC(=O)[C@H](CCC(=O)O)NC(=O)[C@H](CCCNC(=N)N)NC(=O)[C@H](C)NC(=O)[C@H](C)NC(=O)[C@H](CCCNC(=N)N)NC(=O)[C@H](C)NC(=O)[C@H](CCCNC(=N)N)NC(=O)[C@H](C)NC(=O)[C@H](CCC(N)=O)NC(=O)[C@H](CO)NC(=O)[C@H](CC(C)C)NC(=O)[C@H](CC(C)C)NC(=O)[C@@H](NC(=O)[C@H](CCC(N)=O)NC(=O)[C@H](CC(C)C)NC(=O)[C@H](CC(C)C)NC(=O)CNC(=O)[C@@H](NC(=O)[C@@H]1CCCN1C(=O)[C@@H](NC(=O)[C@H](CC(=O)O)NC(=O)[C@H](CC(C)C)NC(=O)[C@H](CO)NC(=O)[C@H](CC(C)C)NC(=O)[C@@H](NC(=O)[C@@H](NC)[C@@H](C)CC)C(C)C)C(C)C)[C@@H](C)CC)[C@@H](C)CC)[C@@H](C)O)[C@@H](C)CC)C(=O)N[C@@H](C)C(=O)N[C@@H](CCC(=O)O)C(=O)N[C@H](C(N)=O)C(C)C` [SEQ ID NO: 215] (H-[NMeI]VLSLDVPIGLLQILLSQARARAAREQAK([AEEA-AEEA-γGlu-γGlu-C20 diacid])TN[Aib]EI[Nle]AEV-NH2) the MRT (PK in rats; Rat) was 6.7, the T½ (PK in rats; Rat) was 5.7 and the clearance (PK in rats; [4]) was 0.2 mL/min/kg. For the same compound, the half-life (PK in rats; [4]) was 5.7 h, the Cmax (PK in rats; [5]) was 42 nM and the Tmax (PK in rats; [5]) was 24 h. The half-life (PK in rats; [5]) was 6.1 h, the bioavailability (PK in rats; male, Sprague Dawley, rat, in vivo, sc) was 28% and the “Amyloid fibril formation + semaglutide (Ozempic®), pH 7.4” value ([1]; 200 µM compound dissolved in semaglutide drug product, pH 7.4, listed as None = drug product alone) was “No”. For the same compound, the “Amyloid fibril formation pH 7.0” value ([1]; 200 µM in 50 mM phosphate buffer, pH 7.0) was “No”, the “Amyloid fibril formation pH 7.5” value ([1]; 200 µM in 50 mM phosphate buffer, pH 7.5) was “No” and the “Amyloid fibril formation pH 8.0” value ([1]; 200 µM in 50 mM phosphate buffer, pH 8.0) was “No”. For the same compound, the “Fibrillation (pH 7.5)” value ([1]; pH 7.5) was “No”, the EC50 (hCRHR2; Table 4, library peptides having X^38 = Nle, read-out: hCRHR2 pEC50 (converted)) was 0.0251 nM and the “Selectivity ratio (hCRHR1/ hCRHR2)” value (hCRHR2; Table 5) was over 5747. For the same compound, the EC50 (hCRHR2; [2]) was 0.87 nM, the “Solubility pH 6.5 (mg/ml)” value (pH 6.5) was 19.6 mg/ml and the “Solubility pH 7.0 (mg/mL)” value (pH 7) was 20.6 mg/mL. The “Solubility pH 7.5 (mg/mL)” value (pH 7.5) was 17.7 mg/mL, the “Solubility pH 7.5 + phenol (mg/mL)” value (pH 7.5) was 18.0 mg/mL and the “Solubility pH 7.5, target conc. =10 mg/mL (measured mg/mL)” value (pH 7.5) was 12 mg/mL. For the same compound, the EC50 (hCRHR1; Table 4, library peptides having X^38 = Nle, read-out: hCRHR1 pEC50 (converted)) was 3160 nM, the EC50 (hCRHR1; [3]) was over 5000 nM and the EC50 (hCRHR1; stable cell system, Table 10, read-out: Stable EC50 (nM) hCRHR 1) was over 5000 nM.
